Converted amounts (≈) assume the structure as drawn.
Tests used:
Assay type in all cases: functional
[1] = tested on: Pseudomonas aeruginosa; assay: Antibacterial activity against Pseudomonas aeruginosa ATCC 9027 infected in cyclophosphamide immunosuppressed keratitis mouse model assessed as log reduction in number of viable bacterial colonies at 0.3 % administrated tropically
[2] = tested on: Staphylococcus aureus; assay: Antibacterial activity against Staphylococcus aureus ATCC 29213 by microbroth dilution assay
[3] = tested on: Staphylococcus aureus; assay: Antibacterial activity against methicillin resistant Staphylococcus aureus N315 by microbroth dilution assay
[4] = tested on: Staphylococcus aureus; assay: Antibacterial activity against methicillin resistant Staphylococcus aureus NCTC 10442 by microbroth dilution assay
[5] = tested on: Staphylococcus aureus; assay: Antibacterial activity against Staphylococcus aureus ATCC 29213 assessed as log reduction in bacterial load at 4 times MIC measured after 2 hrs by time kill assay
[6] = tested on: Staphylococcus aureus; assay: Antibacterial activity against Staphylococcus aureus ATCC 29213 assessed as log reduction in bacterial load at 8 times MIC measured after 2 hrs by time kill assay
[7] = tested on: Staphylococcus aureus; assay: Antibacterial activity against Staphylococcus aureus ATCC 29213 infected in cyclophosphamide immunosuppressed keratitis mouse model assessed as log reduction in number of viable bacterial colonies at 50 mg/ml administrated tropically

Structure (SMILES)	log(activity) [1]	MIC [2] [µg/mL]	MIC [3] [µg/mL]	MIC [4] [µg/mL]	log(activity) [5]	log(activity) [6]	log(activity) [7]
NC[C@H]1O[C@H](O[C@H]2[C@H](O)[C@@H](O[C@H]3O[C@H](CO)[C@@H](O)[C@H](N)[C@H]3O)[C@H](N)C[C@@H]2N)[C@H](N)C[C@@H]1O [TOBRAMYCIN]	4.71						
CN[C@H](CC(C)C)C(=O)N[C@H]1C(=O)N[C@@H](CC(N)=O)C(=O)N[C@H]2C(=O)N[C@H]3C(=O)N[C@H](C(=O)N[C@H](C(=O)O)c4cc(O)cc(O)c4-c4cc3ccc4O)[C@H](O)c3ccc(c(Cl)c3)Oc3cc2cc(c3O[C@@H]2O[C@H](CO)[C@@H](O)[C@H](O)[C@H]2O[C@H]2C[C@](C)(N)[C@H](O)[C@H](C)O2)Oc2ccc(cc2Cl)[C@H]1O [VANCOMYCIN]		0.78 (≈ 0.538 µM)	1.56 (≈ 1.08 µM)	1.56 (≈ 1.08 µM)	0.03	0.15	5.2

Reference: ChEMBL document CHEMBL5634090, “Design of phenothiazine-based cationic amphiphilic derivatives incorporating arginine residues: Potential membrane-active broad-spectrum antimicrobials combating pathogenic bacteria in vitro and in vivo” (Eur J Med Chem, 2023)
